Results from article PMC9367672, “In vitro differences in toddalolactone metabolism in various species and its effect on cytochrome P450 expression” (Pharmaceutical Biology, 2022).

Tests used:
[1] = Metabolic stability assessment in rat liver microsomes; type: in vitro ADME; settings: pH 7.4, RLMs, toddalolactone 20 μM, 0-90 min
Experimental: (§1) The CYP reaction system (200 μL) consisted of 0.1 M potassium phosphate buffer (pH 7.4), an NADPH-generating system (1 mM NADPH, 10 mM G-6-P, 1 unit/mL G-6-PD, 4 mM MgCl2), and liver microsomes or recombinant human microsomes (supersomes). Each of the in vitro enzymatic assays using liver microsomes was linear with respect to incubation time and amount of protein. After a pre-incubation at 37 °C for 3 min, the reactions were initiated by adding NADP^+. After incubating for 60 min, the reactions were quenched by adding 200 μL of ice-cold acetonitrile. Samples were centrifuged at 18,000 g for 15 min at 4 °C and 10 μL of supernatant was analyzed using an HPLC system. […]
(§2) In the UGT reaction system, liver microsomes were incubated in 200 μL of the reaction system containing 4 mM UDPGA, 5 mM MgCl2, 20 µg/mL alamethicin, and 50 mM Tris-HCl buffer (pH 7.4). […] After centrifugation at 18,000 g for 15 min, 10 μL of the supernatant was analyzed by HPLC.
(§3) Toddalolactone (20 μM) was incubated with different liver microsomes, including HLMs, DLMs, PLMs, MLMs, RAMs, RLMs or MIMs in oxidative metabolism and glucuronidation reaction systems. […] The mixtures were centrifuged at 18,000 g for 15 min at 4 °C and then 10 μL of the supernatant was analyzed by HPLC. […]
(§4) The peak areas of toddalolactone and its metabolites were detected using a HPLC system (Shimadzu, Kyoto, Japan). […]

CYP3A5 [2] = molecular target: T1, CYP3A5 (Homo sapiens, UniProt P20815); assay: Reaction phenotyping with recombinant human CYP3A5; type: in vitro ADME; design: purchased Corning Life Sciences (Corning, MA); host or cells: Saccharomyces cerevisiae; settings: CYP3A5 15 nM, 37 °C, 60 min; P4 main metabolite
Experimental: (§5) The CYP reaction system (200 μL) consisted of 0.1 M potassium phosphate buffer (pH 7.4), an NADPH-generating system (1 mM NADPH, 10 mM G-6-P, 1 unit/mL G-6-PD, 4 mM MgCl2), and liver microsomes or recombinant human microsomes (supersomes). Each of the in vitro enzymatic assays using liver microsomes was linear with respect to incubation time and amount of protein. After a pre-incubation at 37 °C for 3 min, the reactions were initiated by adding NADP^+. After incubating for 60 min, the reactions were quenched by adding 200 μL of ice-cold acetonitrile. Samples were centrifuged at 18,000 g for 15 min at 4 °C and 10 μL of supernatant was analyzed using an HPLC system. NADPH or CYP enzyme sources were not used in the control group to ensure that the metabolic reactions were CYP- and NADPH-dependent. All incubation assays were completed in triplicate. The data are presented as mean ± standard deviation (SD).
(§6) Thirteen cDNA-expressed human CYP isoforms (CYP1A1, CYP1A2, CYP2A6, CYP2B6, CYP2C8, CYP3A4, CYP2C19, CYP3A5, CYP1B1, CYP2C9, CYP2D6, CYP2E1 and CYP4F2) were used to identify the isoform(s) involved in the biotransformation of toddalolactone. Toddalolactone (10 μM) was incubated with each recombinant CYP (15 nM) for 60 min at 37 °C and metabolites were identified by HPLC.

CYP3A5 [3] = molecular target: T1, CYP3A5; assay: Enzyme kinetics of toddalolactone metabolism by recombinant CYP3A5; settings: P4 formation
Experimental: The enzyme kinetics of toddalolactone in oxidative metabolism and glucuronidation were determined by incubating liver microsomes (0.2 mg/mL) or CYPs (15 nM) with different concentrations of toddalolactone (1–200 μM). The kinetic parameters including Km and Vmax were obtained by fitting the experimental data to the Michaelis–Menten equation (Equation (1)), biphasic kinetics equation (Equation (2)), or substrate inhibition equation (Equation (3)) (He et al. [2018]), and the results were graphically represented on Eadie–Hofstee plots. The in vitro intrinsic clearance (CLint) was calculated based on the Vmax/Km ratio. Metabolites were quantified using the standard curve for toddalolactone because of the absence of metabolite standards. All incubations were repeated in three independent experiments. Kinetic constants were expressed with mean ± SD: (1) V=Vmax×[S]/Km+[S] (2) V=Vmax1×[S]/Ks1+[S]+Vmax2×[S]/Ks2+[S] […]

[4] = Pharmacokinetics study in rats after intravenous administration; type: in vivo; settings: male, Sprague-Dawley, rat, intravenous 10 mg/kg, plasma
Experimental: Six male Sprague–Dawley rats weighing 200 ± 10 g were obtained from the Laboratory Animal Center of Jinzhou Medical University. Approval of the study protocols was obtained from the Institutional Animal Ethics Committee before the commencement of the studies. Toddalolactone was administered intravenously into the tail vein at a dose of 10 mg/kg, and 0.5 mL of blood was collected through orbital venous plexus at 0, 0.25, 0.5, 0.75, 1, 2, 4, 6 and 8 h after toddalolactone administration and centrifuged at 2000 g for 5 min at 4 °C to obtain the plasma samples. The plasma (0.1 mL) was mixed with 200 μL acetonitrile, the mixture was vortexed for 30 s and then centrifuged at 20,000 g for 20 min and the supernatant was collected and analyzed by HPLC.
After intravenous administration of toddalolactone, blood samples were collected and the concentration of toddalolactone in plasma was determined. The mean plasma concentrations of toddalolactone versus time profiles are depicted in Figure 13. The pharmacokinetic (PK) parameters such as AUC0–t, t1/2, Tmax and Cmax were calculated by a noncompartmental method using the DAS 3.1 software package (Jiangxi University of Traditional Chinese Medicine, Nanchang, China).

[5] = Metabolic stability assessment in mini pig liver microsomes; type: in vitro ADME; settings: pH 7.4, PLMs, toddalolactone 20 μM, 0-90 min
Experimental: as §1, §2, §3, §4

other rhCYP isoforms = assay: Reaction phenotyping with the other recombinant human CYP isoforms; type: in vitro ADME; settings: other rhCYP isoforms (of thirteen), 15 nM, 37 °C, 60 min
Experimental: as §5, §6

[6] = CYP incubation system, read-out: half-life value (T1/2)
[7] = UGT incubation system, read-out: T1/2 value

T1 sequence (P20815 whole entry): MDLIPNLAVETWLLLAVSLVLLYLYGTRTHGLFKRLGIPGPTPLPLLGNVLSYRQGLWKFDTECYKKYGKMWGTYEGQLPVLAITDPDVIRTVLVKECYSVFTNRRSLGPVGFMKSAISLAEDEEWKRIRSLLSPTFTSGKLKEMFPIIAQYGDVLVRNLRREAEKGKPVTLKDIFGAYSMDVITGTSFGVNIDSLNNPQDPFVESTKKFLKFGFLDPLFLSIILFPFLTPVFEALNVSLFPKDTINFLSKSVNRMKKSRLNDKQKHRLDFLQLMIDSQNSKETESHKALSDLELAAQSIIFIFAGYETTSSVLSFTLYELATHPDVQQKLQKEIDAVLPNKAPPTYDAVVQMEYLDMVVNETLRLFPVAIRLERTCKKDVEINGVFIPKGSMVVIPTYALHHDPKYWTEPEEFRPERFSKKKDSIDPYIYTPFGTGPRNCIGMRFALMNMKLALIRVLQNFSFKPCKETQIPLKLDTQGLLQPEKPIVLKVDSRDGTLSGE

Compound: COc1cc2oc(=O)ccc2c(OC)c1C[C@@H](O)C(C)(C)O [toddalolactone]
- half-life at 20 μM [1, 6]: 6.37 ± 0.283 h
- half-life at 20 μM [1, 7]: 2.15 ± 0.197 h
- catalysis of toddalolactone metabolism by rhCYP isoform (CYP3A5 [2]): predominantly catalyzed
- K m (CYP3A5 [3]; recombinant CYP3A5 (15 nM)): 50.34 ± 8.62 µM
- CLint (CYP3A5 [3]; recombinant CYP3A5, Vmax/Km): 0.013 µL/min/nmol CYP
- Tmax [4]: 0.25 h
- AUC(0-t) ([4]; 0–8 h): 460 ng·h/mL
- Cmax ([4]; mean of six): 420 ng/mL
- half-life ([4]; read-out: elimination t1/2 (converted)): 1.05 h
- half-life at 20 μM [5, 6]: 5.12 ± 0.467 h
- half-life at 20 μM [5, 7]: 1.42 ± 0.0717 h
- catalysis of toddalolactone metabolism by rhCYP isoform (other rhCYP isoforms): very limited or even no catalytic activity
